Test results published in ChEMBL document CHEMBL1156375, “Isolation and structure determination of novamethymycin, a new bioactive metabolite of the methymycin biosynthetic pathway in Streptomyces venezuelae” (2001).

These compounds were tested on Bacillus subtilis (assay: Antibacterial activity against Bacillus subtilis ATCC 6633 at 100 ug/disk after 10 hrs by disk diffusion assay). Settings: ATCC 6633, 10 h, read-out: DIZ.
Assay type: functional

| Structure (SMILES) | zone of inhibition at 100 µg/disc [mm] |
| --- | --- |
| C[C@@H]1C[C@H](N(C)C)[C@@H](O)[C@H](O[C@H]2[C@@H](C)C[C@@H](C)C(=O)/C=C/[C@](C)(O)[C@@H]([C@@H](C)O)OC(=O)[C@@H]2C)O1 [NOVAMETHYMYCIN] | 18 |
| CC[C@H]1OC(=O)[C@H](C)[C@@H](O[C@@H]2O[C@H](C)C[C@H](N(C)C)[C@H]2O)[C@@H](C)C[C@@H](C)C(=O)/C=C/[C@H]1C | 16 |
| C[C@@H]1C[C@H](N(C)C)[C@@H](O)[C@H](O[C@H]2[C@@H](C)C[C@@H](C)C(=O)/C=C/[C@@H](C)[C@@H]([C@@H](C)O)OC(=O)[C@@H]2C)O1 [NEOMETHYMYCIN] | 20 |
| CC[C@H]1OC(=O)[C@H](C)[C@@H](O[C@@H]2O[C@H](C)C[C@H](N(C)C)[C@H]2O)[C@@H](C)C[C@@H](C)C(=O)/C=C/[C@]1(C)O [METHYMYCIN] | 18 |
